From patent publication US9073855B2, “BCL-2 selective apoptosis-inducing agents for the treatment of cancer and immune diseases” (AbbVie Inc., priority 2008, dated 2015)

Legend:
GST-Bcl-XL = GST-Bcl-XL (Homo sapiens, UniProt Q07817); experiment: TR-FRET binding assay, GST-Bcl-XL with F-Bak peptide probe; settings: TR-FRET Binding Affinity
Procedure, shortened: (§1)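 Ki was derived with Wang's equation for competitive binding of two ligands. The read-out was time-resolved fluorescence after a 3 h room-temperature incubation, using a Tb-labelled antibody donor and the F-Bak peptide acceptor (excitation 340/35 nm). Test compounds entered as DMSO serial dilutions starting at 50 μM, which was the 2× concentration.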

GST-Bcl-2 = GST-Bcl-2 (Homo sapiens, UniProt P10415); experiment: TR-FRET binding assay, GST-Bcl-2 with F-Bak peptide probe; settings: for Ki: TR-FRET Binding Affinity; for Binding selectivity ratio (Bcl-XL Ki/Bcl-2 Ki): TR-FRET, Bcl-XL Ki divided by Bcl-2 Ki
Procedure, shortened: as §1

GST-Bcl-XL, sequence (Q07817 whole entry): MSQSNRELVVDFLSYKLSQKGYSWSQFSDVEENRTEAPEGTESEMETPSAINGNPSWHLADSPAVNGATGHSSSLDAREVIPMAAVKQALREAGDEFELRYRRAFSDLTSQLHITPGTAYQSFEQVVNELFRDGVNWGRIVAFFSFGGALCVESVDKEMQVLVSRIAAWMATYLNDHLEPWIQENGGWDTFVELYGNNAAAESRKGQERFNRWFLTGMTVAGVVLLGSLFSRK
GST-Bcl-2, sequence (P10415 whole entry): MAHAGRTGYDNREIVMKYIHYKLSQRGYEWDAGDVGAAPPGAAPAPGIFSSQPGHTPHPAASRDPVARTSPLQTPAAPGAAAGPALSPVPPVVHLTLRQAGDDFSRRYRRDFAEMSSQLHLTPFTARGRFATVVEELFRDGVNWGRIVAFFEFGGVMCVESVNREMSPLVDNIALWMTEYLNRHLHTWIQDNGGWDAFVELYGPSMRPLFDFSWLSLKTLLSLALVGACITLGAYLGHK

Row | Compound | Ki (GST-Bcl-XL) | Ki (GST-Bcl-2) | Binding selectivity ratio (Bcl-XL Ki/Bcl-2 Ki) (GST-Bcl-2) | Ki (GST-Bcl-XL; GST-Bcl-XL, F-Bak peptide probe) | Ki (GST-Bcl-2; GST-Bcl-2, F-Bak peptide probe)
1 | CC1(C)CCC(CN2CCN(c3ccc(C(=O)NS(=O)(=O)c4ccc(NC[C@H]5CC[C@](C)(O)CC5)c([N+](=O)[O-])c4)c(Oc4cccc5[nH]ncc45)c3)CC2)=C(c2ccc(Cl)cc2)C1 [Example 525, 4-(4-{[2-(4-chlorophenyl)-4,4-dimethylcyclohex-1-en-1-yl]methyl}piperazin-1-yl)-N-[(4-{[(trans-4-hydroxy-4-methylcyclohexyl)methyl]amino}-3-nitrophenyl)sulfonyl]-2-(1H-indazol-4-yloxy)benzamide] | 19 nM | < 0.01 nM | >1898.4 | – | –
2 | CC1(C)CCC(CN2CCN(c3ccc(C(=O)NS(=O)(=O)c4ccc(OCC5(F)CCOCC5)c([N+](=O)[O-])c4)c(Oc4cccc5[nH]nnc45)c3)CC2)=C(c2ccc(Cl)cc2)C1 [Example 519, 2-(1H-benzotriazol-4-yloxy)-4-(4-{[2-(4-chlorophenyl)-4,4-dimethylcyclohex-1-en-1-yl]methyl}piperazin-1-yl)-N-({4-[(4-fluorotetrahydro-2H-pyran-4-yl)methoxy]-3-nitrophenyl}sulfonyl)benzamide] | 311 nM | 0.012 nM | 25935.4 | – | –
3 | CC1(C)CCC(CN2CCN(c3ccc(C(=O)NS(=O)(=O)c4ccc(NCC5CCOCC5)c([N+](=O)[O-])c4)c(Oc4cccc5[nH]nnc45)c3)CC2)=C(c2ccc(Cl)cc2)C1 [Example 523, 2-(1H-benzotriazol-4-yloxy)-4-(4-{[2-(4-chlorophenyl)-4,4-dimethylcyclohex-1-en-1-yl]methyl}piperazin-1-yl)-N-({3-nitro-4-[(tetrahydro-2H-pyran-4-ylmethyl)amino]phenyl}sulfonyl)benzamide] | 49.4 nM | < 0.01 nM | >4944.4 | – | –
4 | CC1(C)CC(c2ccc(Cl)cc2)=C(CN2CCN(c3ccc(C(=O)NS(=O)(=O)c4ccc(OCC5(F)CCOCC5)c(Cl)c4)c(Oc4cccc5[nH]ncc45)c3)CC2)CO1 [Example 496, N-({3-chloro-4-[(4-fluorotetrahydro-2H-pyran-4-yl)methoxy]phenyl}sulfonyl)-4-(4-{[4-(4-chlorophenyl)-6,6-dimethyl-5,6-dihydro-2H-pyran-3-yl]methyl}piperazin-1-yl)-2-(1H-indazol-4-yloxy)benzamide] | 43.3 nM | 0.078 nM | 558.9 | – | –
5 | CC1(C)CCC(CN2CCN(c3ccc(C(=O)NS(=O)(=O)c4cnc(OCC5(F)CCC(O)CC5)c(Cl)c4)c(Oc4cccc5[nH]ncc45)c3)CC2)=C(c2ccc(Cl)cc2)C1 (stereo not drawn) [Example 518, N-({5-chloro-6-[(cis-1-fluoro-4-hydroxycyclohexyl)methoxy]pyridin-3-yl}sulfonyl)-4-(4-{[2-(4-chlorophenyl)-4,4-dimethylcyclohex-1-en-1-yl]methyl}piperazin-1-yl)-2-(1H-indazol-4-yloxy)benzamide] | 2.55 nM | < 0.01 nM | >254.6 | – | –
6 | O=C(NS(=O)(=O)c1ccccc1OCCN1CCCCC1)c1ccc(N2CCN(Cc3ccccc3-c3ccc(Cl)cc3)CC2)cc1Oc1ccccc1 [Example 32, 4-{4-[(4′-chloro-1,1′-biphenyl-2-yl)methyl]piperazin-1-yl}-2-phenoxy-N-{[2-(2-piperidin-1-ylethoxy)phenyl]sulfonyl}benzamide] | – | – | – | > 660 nM | 61.1 nM
7 | CC1(C)CCC(CN2CCN(c3ccc(C(=O)NS(=O)(=O)c4ccc(OCC5(F)CCOCC5)c(Cl)c4)c(Oc4cccc5[nH]ncc45)c3)CC2)=C(c2ccc(Cl)cc2)C1 [Example 464, N-({3-chloro-4-[(4-fluorotetrahydro-2H-pyran-4-yl)methoxy]phenyl}sulfonyl)-4-(4-{[2-(4-chlorophenyl)-4,4-dimethylcyclohex-1-en-1-yl]methyl}piperazin-1-yl)-2-(1H-indazol-4-yloxy)benzamide] | 521 nM | 0.081 nM | 6431.8 | – | –
